How the values were obtained:
[1] = system: anesthetized male Sprague–Dawley rats; test: Renal excretory function: urine flow rate, urinary Na+, K+, Cl− excretion; assay type: in vivo, rat; conditions: anesthetized male SD rats, Figure 5
Method: (§1) After one week of acclimation, SD rats (10–12 weeks old) were randomly divided into study groups. Rats were anesthetized with thiobutabarbital sodium (Inactin, 110 mg/kg, IP; Sigma-Aldrich, St. Louis, Missouri). Core temperature was maintained between 36 and 37°C throughout the study using a heating pad (Fine Science Tools Inc., Foster City, California). Polyethylene PE-50 tubing was inserted into the left femoral artery to permit intermittent blood sampling, and was also connected to a pressure transducer (NL108T2, Harvard Apparatus, Holliston, Massachusetts) for the measurement of blood pressure (BP) and heart rate (HR). […] Urine volumes were measured and urine was analyzed for electrolytes (Na^+, K^+, and Cl^−) and pH at multiple time points during the study. GFR and RBF were determined by inulin and PAH renal clearance at baseline and the end of the study. […]
(§2) One group of animals received four successive infusions of saline. […] BP, HR, urinary Na^+, K^+, and Cl^− excretion were measured at baseline and at the end of each 20 minute infusion period. GFR and RBF were assessed at baseline and at the end of the last infusion period in each animal (Figure 1).
(§3) Animals were randomized into 8 experimental groups (n = 6 - 8) (Table 1): Group 1. […] Parameters measured are the same as described in Protocol 1 (Figure 2). […]

[2] = system: anesthetized male Sprague–Dawley rats; test: Renal blood flow by para-aminohippurate clearance; assay type: in vivo, rat; conditions: anesthetized male SD rats
Method: as §1, §2, §3

[3] = Plasma concentration of active GLP-1 (ELISA); assay type: in vivo, rat; conditions: anesthetized male SD rats
Method: as §1, with “(HR). The signal from the pressure transducer was transmitted to a Ponemah data acquisition system (Data Science International, St. Paul, Minnesota). The left femoral vein was cannulated with PE-50 tubing for solution administration and compound delivery, respectively. The bladder was catheterized with PE-100 tubing to allow timed collections of urine.” for “(HR).”
Na^+, K^+, and Cl^− concentrations in plasma and urine were measured by a Roche Modular Chemistry System (Roche Diagnostics, Indianapolis, Indiana). Hematocrit was determined using a HESKA I-STAT Hematology Analyzer (HESKA, Fribourg, Switzerland). Urine pH was measured by a pH meter (Fisher Scientific, Pittsburgh, Pennsylvania). Inulin and PAH concentrations in plasma and urine were determined by colorimetric assays. […] Plasma DPP4 activity was measured using a continuous fluorometric assay with the substrate Gly-Pro-AMC, which is cleaved by DPP4 to release the fluorescent AMC leaving group.

[4] = system: anesthetized male Sprague–Dawley rats; test: Glomerular filtration rate by inulin clearance; assay type: in vivo, rat; conditions: anesthetized male SD rats
Method: as §1, §2, §3

[5] = system: anesthetized male Sprague–Dawley rats; test: Plasma insulin; assay type: in vivo, rat; conditions: anesthetized male SD rats, mean ± SE, n = 6-8
Method: as §1, with “(HR). The signal from the pressure transducer was transmitted to a Ponemah data acquisition system (Data Science International, St. Paul, Minnesota). The left femoral vein was cannulated with PE-50 tubing for solution administration and compound delivery, respectively. The bladder was catheterized with PE-100 tubing to allow timed collections of urine.” for “(HR).”

[6] = system: anesthetized male Sprague–Dawley rats; test: Heart rate recorded from indwelling femoral artery catheter; assay type: in vivo, rat; conditions: anesthetized male SD rats, mean ± SE, n = 6-8
Method: as §1, §2
(§4) Animals were randomized into 8 experimental groups (n = 6 - 8) (Table 1): Group 1. […] Parameters measured are the same as described in Protocol 1 (Figure 2).

[7] = system: anesthetized male Sprague–Dawley rats; test: Blood pressure recorded from indwelling femoral artery catheter; assay type: in vivo, rat; conditions: anesthetized male SD rats, mean ± SE, n = 6-8
Method: as §1, §2, §4

[8] = system: anesthetized male Sprague–Dawley rats; test: Plasma glucose; assay type: in vivo, rat; conditions: anesthetized male SD rats, mean ± SE, n = 6-8
Method: After one week of acclimation, SD rats (10–12 weeks old) were randomly divided into study groups. Rats were anesthetized with thiobutabarbital sodium (Inactin, 110 mg/kg, IP; Sigma-Aldrich, St. Louis, Missouri). Core temperature was maintained between 36 and 37°C throughout the study using a heating pad (Fine Science Tools Inc., Foster City, California). Polyethylene PE-50 tubing was inserted into the left femoral artery to permit intermittent blood sampling, and was also connected to a pressure transducer (NL108T2, Harvard Apparatus, Holliston, Massachusetts) for the measurement of blood pressure (BP) and heart rate (HR). The signal from the pressure transducer was transmitted to a Ponemah data acquisition system (Data Science International, St. Paul, Minnesota). The left femoral vein was cannulated with PE-50 tubing for solution administration and compound delivery, respectively. […] In addition, 0.9% saline was infused via a Y shape adapter to the left femoral vein at a rate of 0.1 ml/100 g/h. Rats were allowed to stabilize for ~1 hour before initiation of the study. The experimental protocol was initiated with a 20-minute baseline urine collection, followed by administration of either vehicle or test compound at a rate of 0.1 ml/100 g/h for 60-minutes.

DPP4 = molecular target: T1, DPP4 (Rattus norvegicus, UniProt P14740); test: Plasma DPP4 activity, continuous fluorometric assay with Gly-Pro-AMC; assay type: in vivo; conditions: anesthetized male SD rats, MK-0626 1 mg/kg iv bolus, substrate Gly-Pro-AMC
T1 construct: from tissue; host or cells: plasma of Sprague-Dawley rats
Method: as §1
(§5) Na^+, K^+, and Cl^− concentrations in plasma and urine were measured by a Roche Modular Chemistry System (Roche Diagnostics, Indianapolis, Indiana). Hematocrit was determined using a HESKA I-STAT Hematology Analyzer (HESKA, Fribourg, Switzerland). Urine pH was measured by a pH meter (Fisher Scientific, Pittsburgh, Pennsylvania). Inulin and PAH concentrations in plasma and urine were determined by colorimetric assays. […]

[9] = system: anesthetized male Sprague–Dawley rats; test: Urine pH; assay type: in vivo, rat; conditions: anesthetized male SD rats, mean ± SE, n = 6-8
Method: as §1, §5

[10] = system: anesthetized male Sprague–Dawley rats; test: Plasma K+ concentration; assay type: in vivo, rat; conditions: anesthetized male SD rats, mean ± SE, n = 6-8
Method: as §1, §5

[11] = system: anesthetized male Sprague–Dawley rats; test: Hematocrit; assay type: in vivo, rat; conditions: anesthetized male SD rats, mean ± SE, n = 6-8
Method: as §1, §5

[12] = group MK-0626 + Saline, baseline = 20 min period prior to IV administration
[13] = MK-0626 1 mg/kg iv bolus followed by saline iv infusion, end of study
[14] = MK-0626 1 mg/kg iv bolus followed by saline iv infusion

T1 sequence (P14740 37-767 limits assumed): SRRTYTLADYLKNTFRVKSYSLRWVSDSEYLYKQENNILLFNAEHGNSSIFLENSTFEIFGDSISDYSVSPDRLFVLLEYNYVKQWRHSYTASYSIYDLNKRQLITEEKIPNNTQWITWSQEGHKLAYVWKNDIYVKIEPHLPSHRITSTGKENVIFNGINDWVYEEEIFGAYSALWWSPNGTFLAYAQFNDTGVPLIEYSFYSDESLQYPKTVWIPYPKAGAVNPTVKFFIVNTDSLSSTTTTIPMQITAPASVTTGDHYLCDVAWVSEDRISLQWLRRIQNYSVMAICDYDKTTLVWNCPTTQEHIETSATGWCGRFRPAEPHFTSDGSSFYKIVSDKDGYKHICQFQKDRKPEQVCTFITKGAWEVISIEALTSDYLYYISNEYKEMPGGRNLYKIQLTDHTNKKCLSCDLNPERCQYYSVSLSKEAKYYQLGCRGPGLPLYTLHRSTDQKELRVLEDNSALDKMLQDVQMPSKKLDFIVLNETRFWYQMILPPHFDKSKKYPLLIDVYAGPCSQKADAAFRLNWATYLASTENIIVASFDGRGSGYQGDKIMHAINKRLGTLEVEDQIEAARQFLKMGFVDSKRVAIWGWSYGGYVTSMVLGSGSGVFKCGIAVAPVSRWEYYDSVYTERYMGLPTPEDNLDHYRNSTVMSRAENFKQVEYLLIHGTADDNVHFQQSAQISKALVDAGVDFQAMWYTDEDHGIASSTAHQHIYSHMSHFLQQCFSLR

For `CC[C@H](C)[C@H](NC(=O)[C@H](Cc1ccccc1)NC(=O)[C@H](CCC(=O)O)NC(=O)[C@H](CCCCN)NC(=O)[C@H](C)NC(=O)[C@H](C)NC(=O)[C@H](CCC(N)=O)NC(=O)CNC(=O)[C@H](CCC(=O)O)NC(=O)[C@H](CC(C)C)NC(=O)[C@H](Cc1ccc(O)cc1)NC(=O)[C@H](CO)NC(=O)[C@H](CO)NC(=O)[C@@H](NC(=O)[C@H](CC(=O)O)NC(=O)[C@H](CO)NC(=O)[C@@H](NC(=O)[C@H](Cc1ccccc1)NC(=O)[C@@H](NC(=O)CNC(=O)[C@H](CCC(=O)O)NC(=O)[C@H](C)NC(=O)[C@@H](N)Cc1c[nH]cn1)[C@@H](C)O)[C@@H](C)O)C(C)C)C(=O)N[C@@H](C)C(=O)N[C@@H](Cc1c[nH]c2ccccc12)C(=O)N[C@@H](CC(C)C)C(=O)N[C@H](C(=O)N[C@@H](CCCCN)C(=O)NCC(=O)N[C@@H](CCCNC(=N)N)C(N)=O)C(C)C` [GLP-1, Glucagon-like peptide 1, reference compound], the “effect on diuresis, natriuresis, chloruresis and kaliuresis” value ([1]; saline bolus followed by GLP-1 iv infusion alone (2.4, 4.8, 9.6 pmol/kg/min)) was “modest, albeit significant increase”, the “effect on RBF” value ([2]; GLP-1 alone, only at the highest dose 9.6 pmol/kg/min, Figure 6c) was “significant effect” and the “effect on plasma active GLP-1 levels” value ([3]; exogenous GLP-1 infusion 2.4, 4.8 and 9.6 pmol/kg/min, further enhanced after MK-0626, Figure 4) was “step-wise increase”. For the same compound, the “effect on GFR” value ([4]; GLP-1 iv infusion alone, no dose-dependence, Figure 6a) was “modest increase”.
For `CN(C)C(=O)[C@@H](c1ccc(-c2ccc3ncnn3c2)cc1)[C@H](N)C(=O)N1CCC(F)(F)C1.Cl` [MK-0626], the “Insulin, baseline” value [5, 12] was 2.5 ± 0.2 ng/mL, the “Insulin, treatment” value [5, 13] was 2.7 ± 0.1 ng/mL and the “HR, baseline” value [6, 12] was 381.2 ± 10.0 bpm. For the same compound, the “HR, treatment” value [6, 14] was 380.9 ± 10.3 bpm, the “BP, baseline” value [7, 12] was 123.5 ± 3.7 mmHg and the “BP, treatment” value [7, 14] was 121.9 ± 3.9 mmHg. For the same compound, the “Glucose, baseline” value [8, 12] was 134.9 ± 6.0 mg/dL, the “Glucose, treatment” value [8, 13] was 135.8 ± 7.3 mg/dL and the “Plasma DPP4 activity, inhibition” value (DPP4) was “greater than 90%”. The “effect on diuresis or natriuresis” value ([1]; MK-0626 1 mg/kg iv bolus alone) was “no significant effect”, the “effect on RBF” value ([2]; MK-0626 1 mg/kg alone, in the absence of GLP-1 administration) was “increased” and the “urine pH, baseline” value [9, 12] was 6.07 ± 0.17. For the same compound, the “urine pH, treatment” value [9, 14] was 6.25 ± 0.20, the “circulating GLP-1 level, baseline before MK-0626 alone” value ([3]; group MK-0626 alone, baseline, ELISA, active GLP-1) was 3.4 pmpol/L and the “circulating GLP-1 level after MK-0626 alone” value ([3]; MK-0626 1 mg/kg iv bolus alone (no exogenous GLP-1), ELISA, active GLP-1) was 5.5 pmol/L. For the same compound, the “effect on GFR” value ([4]; all animals that received MK-0626 1 mg/kg, not further enhanced by increasing doses of GLP-1, Figure 6b) was “increased”, the “plasma K+, baseline” value [10, 12] was 4.4 ± 0.14 mmol/L and the “plasma K+, treatment” value [10, 13] was 4.2 ± 0.10 mmol/L. For the same compound, the “Hematocrit, baseline” value [11, 12] was 40.0 ± 0.8% and the “Hematocrit, treatment” value [11, 13] was 38.2 ± 0.6%.
